Laboratory results taken from ChEMBL document CHEMBL1275493, “Anti-human immunodeficiency virus type 1 activities of antimicrobial peptides derived from human and bovine cathelicidins” (Antimicrob Agents Chemother, 2008).
Peptide text beside a SMILES is read from it.

What was measured:
CEM-SS = assay: Cytotoxicity against Human immunodeficiency virus 1 3B infected human CEM-SS cells; assay type: functional; details: read-out: TC50 (the source's name)
[1] = system: Human immunodeficiency virus 1; assay: Antiviral activity against Human immunodeficiency virus 1 3B infected in CEM-SS cells; assay type: functional, organism-based
[2] = Therapeutic index, TC50 for Human immunodeficiency virus 1 3B infected human CEM-SS cells to EC50 for immunodeficiency virus 1 3B; assay type: cell-based; details: CEM-SS cells infected with HIV-1 3B, read-out: TI

Structure (SMILES)	CC50 (CEM-SS)	EC50 [1]	selectivity ratio [2]
CC[C@H](C)[C@H](NC(=O)CN)C(=O)N[C@@H](CCCCN)C(=O)N[C@@H](CCC(N)=O)C(=O)N[C@@H](Cc1ccccc1)C(=O)N[C@@H](CCCCN)C(=O)N[C@@H](CCCNC(=N)N)C(=O)N[C@H](C(=O)N[C@H](C(=O)N[C@@H](CCC(N)=O)C(=O)N[C@@H](CCCNC(=N)N)C(=O)N[C@H](C(=O)N[C@@H](CCCCN)C(=O)N[C@@H](CC(=O)O)C(=O)N[C@@H](Cc1ccccc1)C(=O)N[C@@H](CC(C)C)C(=O)N[C@@H](CCCNC(=N)N)C(=O)N[C@@H](CC(N)=O)C(=O)N[C@@H](CC(C)C)C(=O)N[C@H](C(=O)O)C(C)C)[C@@H](C)CC)C(C)C)[C@@H](C)CC (H-GIKQFKRIVQRIKDFLRNLV-OH)	13.7 µM	–	–
CC[C@H](C)[C@H](NC(=O)CN)C(=O)N[C@@H](CCCCN)C(=O)N[C@@H](CCC(=O)O)C(=O)N[C@@H](C(=O)N[C@@H](CCCCN)C(=O)N[C@@H](CCCNC(=N)N)C(=O)N[C@H](C(=O)N[C@H](C(=O)N[C@@H](CCC(N)=O)C(=O)N[C@@H](CCCNC(=N)N)C(=O)N[C@H](C(=O)N[C@@H](CCCCN)C(=O)N[C@@H](CC(=O)O)C(=O)N[C@@H](Cc1ccccc1)C(=O)N[C@@H](CC(C)C)C(=O)N[C@@H](CCCNC(=N)N)C(=O)N[C@@H](CC(N)=O)C(=O)N[C@@H](CC(C)C)C(=O)N[C@H](C(=O)O)C(C)C)[C@@H](C)CC)C(C)C)[C@@H](C)CC)c1ccccc1	7.3 µM	> 40.6 µM	–
CC[C@H](C)[C@H](NC(=O)[C@H](CCCCN)NC(=O)[C@H](CC(=O)O)NC(=O)[C@H](Cc1ccccc1)NC(=O)[C@H](CC(C)C)NC(=O)[C@@H](N)CCCNC(=N)N)C(=O)N[C@@H](CCCNC(=N)N)C(=O)N[C@@H](CCC(N)=O)C(=O)N[C@H](C(=O)N[C@H](C(=O)N[C@@H](CCCNC(=N)N)C(=O)N[C@@H](CCCCN)C(=O)N[C@@H](Cc1ccccc1)C(=O)O)[C@@H](C)CC)C(C)C (H-RLFDKIRQVIRKF-OH)	33.7 µM	> 58.1 µM	–
CC[C@H](C)[C@H](NC(=O)[C@H](CCCNC(=N)N)NC(=O)[C@H](CCCCN)NC(=O)[C@H](Cc1ccccc1)NC(=O)CN)C(=O)N[C@H](C(=O)N[C@@H](CCC(N)=O)C(=O)N[C@@H](CCCNC(=N)N)C(=O)N[C@@H](C(=O)N[C@@H](CCCCN)C(=O)N[C@@H](CC(=O)O)C(=O)N[C@@H](Cc1ccccc1)C(=O)N[C@H](CC(C)C)C(=O)N[C@@H](CCCNC(=N)N)C(=O)N[C@@H](CC(N)=O)C(=O)N[C@@H](CC(C)C)C(=O)N[C@H](C(=O)O)C(C)C)[C@@H](C)CC)C(C)C	> 47.5 µM	> 47.5 µM	–
CC[C@H](C)[C@H](NC(=O)[C@H](CCCCN)NC(=O)[C@H](CCCCN)NC(=O)[C@H](Cc1ccccc1)NC(=O)[C@H](CC(C)C)NC(=O)[C@H](CCCCN)NC(=O)[C@H](CCCCN)NC(=O)[C@H](CC(C)C)NC(=O)[C@H](CCCCN)NC(=O)[C@H](CCCCN)NC(=O)[C@H](CCCNC(=N)N)NC(=O)[C@@H](NC(=O)[C@H](CCCNC(=N)N)NC(=O)[C@H](CCCCN)NC(=O)[C@H](Cc1ccccc1)NC(=O)[C@H](CCCNC(=N)N)NC(=O)CN)[C@@H](C)CC)C(=O)N[C@@H](CO)C(=O)O (H-GRFKRIRKKLKKLFKKIS-OH) [listing 1 of 2 here]	2.79 µM	–	–
CC[C@H](C)[C@H](NC(=O)CN)C(=O)N[C@@H](CCCCN)C(=O)N[C@@H](CCC(=O)O)C(=O)N[C@@H](Cc1c[nH]c2ccccc12)C(=O)N[C@@H](CCCCN)C(=O)N[C@@H](CCCNC(=N)N)C(=O)N[C@H](C(=O)N[C@H](C(=O)N[C@@H](CCC(N)=O)C(=O)N[C@@H](CCCNC(=N)N)C(=O)N[C@H](C(=O)N[C@@H](CCCCN)C(=O)N[C@@H](CC(=O)O)C(=O)N[C@@H](Cc1ccccc1)C(=O)N[C@@H](CC(C)C)C(=O)N[C@@H](CCCNC(=N)N)C(=O)N[C@@H](CC(N)=O)C(=O)N[C@@H](CC(C)C)C(=O)N[C@H](C(=O)O)C(C)C)[C@@H](C)CC)C(C)C)[C@@H](C)CC (H-GIKEWKRIVQRIKDFLRNLV-OH) [listing 1 of 2 here]	–	7.4 µM	3.2
CC[C@H](C)[C@H](NC(=O)CN)C(=O)N[C@@H](CCCCN)C(=O)N[C@@H](CCC(=O)O)C(=O)N[C@@H](Cc1ccccc1)C(=O)N[C@@H](CCCCN)C(=O)N[C@@H](CCCNC(=N)N)C(=O)N[C@@H](CCC(=O)O)C(=O)N[C@@H](Cc1ccccc1)C(=O)N[C@@H](CCC(N)=O)C(=O)N[C@@H](CCCNC(=N)N)C(=O)N[C@H](C(=O)N[C@@H](CCCCN)C(=O)N[C@@H](CC(=O)O)C(=O)N[C@@H](Cc1ccccc1)C(=O)N[C@@H](CC(C)C)C(=O)N[C@@H](CCCNC(=N)N)C(=O)N[C@@H](CC(N)=O)C(=O)N[C@@H](CC(C)C)C(=O)N[C@H](C(=O)O)C(C)C)[C@@H](C)CC (H-GIKEFKREFQRIKDFLRNLV-OH) [listing 1 of 2 here]	–	1.6 µM	6.2
CC[C@H](C)[C@H](NC(=O)CN)C(=O)N[C@@H](CCCCN)C(=O)N[C@@H](CCC(=O)O)C(=O)N[C@@H](Cc1c[nH]c2ccccc12)C(=O)N[C@@H](CCCCN)C(=O)N[C@@H](CCCNC(=N)N)C(=O)N[C@H](C(=O)N[C@H](C(=O)N[C@@H](CCC(N)=O)C(=O)N[C@@H](CCCNC(=N)N)C(=O)N[C@H](C(=O)N[C@@H](CCCCN)C(=O)N[C@@H](CC(=O)O)C(=O)N[C@@H](Cc1ccccc1)C(=O)N[C@@H](CC(C)C)C(=O)N[C@@H](CCCNC(=N)N)C(=O)N[C@@H](CC(N)=O)C(=O)N[C@@H](CC(C)C)C(=O)N[C@H](C(=O)O)C(C)C)[C@@H](C)CC)C(C)C)[C@@H](C)CC (H-GIKEWKRIVQRIKDFLRNLV-OH) [listing 2 of 2 here]	23.6 µM	–	–
CC[C@H](C)[C@H](NC(=O)[C@H](CCCCN)NC(=O)[C@H](CCCCN)NC(=O)[C@H](Cc1ccccc1)NC(=O)[C@H](CC(C)C)NC(=O)[C@H](CCCCN)NC(=O)[C@H](CCCCN)NC(=O)[C@H](CC(C)C)NC(=O)[C@H](CCCCN)NC(=O)[C@H](CCCCN)NC(=O)[C@H](CCCNC(=N)N)NC(=O)[C@@H](NC(=O)[C@H](CCCNC(=N)N)NC(=O)[C@H](CCCCN)NC(=O)[C@H](Cc1ccccc1)NC(=O)[C@H](CCCNC(=N)N)NC(=O)CN)[C@@H](C)CC)C(=O)N[C@@H](CO)C(=O)O (H-GRFKRIRKKLKKLFKKIS-OH) [listing 2 of 2 here]	–	> 44 µM	–
CC[C@H](C)[C@H](NC(=O)CN)C(=O)N[C@@H](CCCCN)C(=O)N[C@@H](CCC(=O)O)C(=O)N[C@@H](Cc1ccccc1)C(=O)N[C@@H](CCCCN)C(=O)N[C@@H](CCCNC(=N)N)C(=O)N[C@@H](CCC(=O)O)C(=O)N[C@@H](Cc1ccccc1)C(=O)N[C@@H](CCC(N)=O)C(=O)N[C@@H](CCCNC(=N)N)C(=O)N[C@H](C(=O)N[C@@H](CCCCN)C(=O)N[C@@H](CC(=O)O)C(=O)N[C@@H](Cc1ccccc1)C(=O)N[C@@H](CC(C)C)C(=O)N[C@@H](CCCNC(=N)N)C(=O)N[C@@H](CC(N)=O)C(=O)N[C@@H](CC(C)C)C(=O)N[C@H](C(=O)O)C(C)C)[C@@H](C)CC (H-GIKEFKREFQRIKDFLRNLV-OH) [listing 2 of 2 here]	9.9 µM	–	–
CC[C@H](C)[C@H](NC(=O)[C@H](CCCNC(=N)N)NC(=O)[C@H](CCCCN)NC(=O)[C@H](Cc1ccccc1)NC(=O)CN)C(=O)N[C@H](C(=O)N[C@@H](CCC(N)=O)C(=O)N[C@@H](CCCNC(=N)N)C(=O)N[C@@H](C(=O)N[C@@H](CCCCN)C(=O)N[C@@H](CC(=O)O)C(=O)N[C@@H](Cc1ccccc1)C(=O)N[C@@H](CC(C)C)C(=O)N[C@@H](CCCNC(=N)N)C(=O)N[C@@H](CC(N)=O)C(=O)N[C@@H](CC(C)C)C(=O)N[C@H](C(=O)O)C(C)C)[C@@H](C)CC)C(C)C	22.7 µM	> 47.5 µM	–
CC(C)C[C@H](NC(=O)[C@H](CCCCN)NC(=O)[C@H](CCCCN)NC(=O)[C@H](Cc1ccccc1)NC(=O)[C@H](CCCCN)NC(=O)[C@H](CCCCN)NC(=O)[C@H](CCCNC(=N)N)NC(=O)[C@H](Cc1ccccc1)NC(=O)[C@H](CCCNC(=N)N)NC(=O)[C@H](CCCCN)NC(=O)[C@H](Cc1ccccc1)NC(=O)[C@H](CCCNC(=N)N)NC(=O)CN)C(=O)N[C@@H](Cc1ccccc1)C(=O)N[C@@H](CCCCN)C(=O)O (H-GRFKRFRKKFKKLFK-OH)	> 49.6 µM	> 49.6 µM	–
CC[C@H](C)[C@H](NC(=O)[C@H](CCCCN)NC(=O)[C@H](CCC(=O)O)NC(=O)[C@H](CCCCN)NC(=O)[C@H](CO)NC(=O)[C@H](CCCCN)NC(=O)[C@H](CCCNC(=N)N)NC(=O)[C@H](CC(C)C)NC(=O)[C@H](CC(C)C)NC(=O)[C@H](CC(=O)O)NC(=O)CNC(=O)[C@H](CC(C)C)NC(=O)[C@@H](N)CC(C)C)C(=O)NCC(=O)N[C@@H](CCCCN)C(=O)N[C@@H](CCC(=O)O)C(=O)N[C@@H](Cc1ccccc1)C(=O)N[C@@H](CCCCN)C(=O)N[C@@H](CCCNC(=N)N)C(=O)N[C@H](C(=O)N[C@H](C(=O)N[C@@H](CCC(N)=O)C(=O)N[C@@H](CCCNC(=N)N)C(=O)O)C(C)C)[C@@H](C)CC (H-LLGDLLRKSKEKIGKEFKRIVQR-OH)	> 35.4 µM	> 35.4 µM	–
CC[C@H](C)[C@H](NC(=O)[C@H](CCCNC(=N)N)NC(=O)[C@H](CCC(N)=O)NC(=O)[C@@H](NC(=O)[C@@H](NC(=O)[C@H](CCCNC(=N)N)NC(=O)[C@@H](N)CCCCN)[C@@H](C)CC)C(C)C)C(=O)N[C@@H](CCCCN)C(=O)N[C@@H](CC(=O)O)C(=O)N[C@@H](Cc1ccccc1)C(=O)N[C@@H](CC(C)C)C(=O)N[C@@H](CCCNC(=N)N)C(=O)N[C@@H](CC(N)=O)C(=O)N[C@@H](CC(C)C)C(=O)N[C@H](C(=O)N1CCC[C@H]1C(=O)N[C@@H](CCCNC(=N)N)C(=O)N[C@H](C(=O)N[C@@H](CCC(=O)O)C(=O)N[C@@H](CO)C(=O)O)[C@@H](C)O)C(C)C (H-KRIVQRIKDFLRNLVPRTES-OH)	> 40.5 µM	> 40.5 µM	–
CC[C@H](C)[C@H](NC(=O)[C@H](CCCNC(=N)N)NC(=O)[C@H](CCC(N)=O)NC(=O)[C@@H](NC(=O)[C@@H](NC(=O)[C@H](CCCNC(=N)N)NC(=O)[C@@H](N)CCCCN)[C@@H](C)CC)C(C)C)C(=O)N[C@@H](CCCCN)C(=O)N[C@@H](CC(=O)O)C(=O)N[C@@H](Cc1ccccc1)C(=O)N[C@@H](CC(C)C)C(=O)N[C@@H](CCCNC(=N)N)C(=O)O (H-KRIVQRIKDFLR-OH)	> 63.5 µM	> 63.5 µM	–
